Measured values published in ChEMBL document CHEMBL1129456, “Synthesis and evaluation of two positron-labeled nitric oxide synthase inhibitors, S-[11C]methylisothiourea and S-(2-[18F]fluoroethyl)isothiourea, as potential positron emission tomography tracers” (J Med Chem, 1996).

Assays:
[1] = species on record: Rattus norvegicus; assay: Biodistribution in bone of mature female Dawley rat after 1h, expressed as percent injected dose/g; type: ADME, organism-based, Bone element; conditions: in vivo
[2] = species on record: Rattus norvegicus; assay: Biodistribution in abdominal Dawley rat after 30min, expressed as percent injected dose/g; type: ADME, organism-based; conditions: in vivo, 0.5 h
[3] = species on record: Rattus norvegicus; assay: Biodistribution in heart of mature female Dawley rat after 30min, expressed as percent injected dose/g; type: ADME, organism-based; conditions: in vivo, 0.5 h
[4] = species on record: Rattus norvegicus; assay: Biodistribution in heart of mature female Dawley rat after 1h, expressed as percent injected dose/g; type: ADME, organism-based; conditions: in vivo
[5] = species on record: Rattus norvegicus; assay: Biodistribution in brain of mature female Dawley rat after 10min, expressed as percent injected dose/g; type: ADME, organism-based; conditions: in vivo
[6] = species on record: Rattus norvegicus; assay: Biodistribution in bone of mature female Dawley rat after 30min, expressed as percent injected dose/g; type: ADME, organism-based, Bone element; conditions: in vivo, 0.5 h
[7] = species on record: Rattus norvegicus; assay: Biodistribution in blood of mature female Dawley rat after 10min, expressed as percent injected dose/g; type: ADME, organism-based; conditions: in vivo
[8] = species on record: Rattus norvegicus; assay: Biodistribution inl liver of mature female Dawley rat after 1h, expressed as percent injected dose/g; type: ADME, organism-based; conditions: in vivo
[9] = species on record: Rattus norvegicus; assay: Biodistribution in muscle of mature female Dawley rat after 30min, expressed as percent injected dose/g; type: ADME, organism-based, Muscle tissue; conditions: in vivo, 0.5 h
[10] = species on record: Rattus norvegicus; assay: Biodistribution in brain of mature female Dawley rat after 3 h, expressed as percent injected dose/g; type: ADME, organism-based; conditions: in vivo
[11] = species on record: Rattus norvegicus; assay: Biodistribution in abdominal of mature female Dawley rat after 3 h, expressed as percent injected dose/g; type: ADME, organism-based, Abdominal cavity; conditions: in vivo
[12] = species on record: Rattus norvegicus; assay: Biodistribution in bone of mature female Dawley rat after 3 h, expressed as percent injected dose/g; type: ADME, organism-based, Bone element; conditions: in vivo
[13] = species on record: Rattus norvegicus; assay: Biodistribution in muscle of mature female Dawley rat after 3 h, expressed as percent injected dose/g; type: ADME, organism-based, Muscle tissue; conditions: in vivo
[14] = species on record: Rattus norvegicus; assay: Biodistribution in kidney of mature female Dawley rat after 3 h, expressed as percent injected dose/g; type: ADME, organism-based; conditions: in vivo
[15] = species on record: Rattus norvegicus; assay: Biodistribution in lung of mature female Dawley rat after 30min, expressed as percent injected dose/g; type: ADME, organism-based; conditions: in vivo, 0.5 h
[16] = species on record: Rattus norvegicus; assay: Biodistribution in lung of mature female Dawley rat after 10min, expressed as percent injected dose/g; type: ADME, organism-based; conditions: in vivo
[17] = species on record: Rattus norvegicus; assay: Biodistribution in liver of mature female Dawley rat after 10min, expressed as percent injected dose/g; type: ADME, organism-based; conditions: in vivo
[18] = species on record: Rattus norvegicus; assay: Biodistribution inl ilver of mature female Dawley rat after 30min, expressed as percent injected dose/g; type: ADME, organism-based; conditions: in vivo, 0.5 h
[19] = species on record: Rattus norvegicus; assay: Biodistribution in abdominal of mature female Dawley rat after 10min, expressed as percent injected dose/g; type: ADME, organism-based, Abdominal cavity; conditions: in vivo
[20] = species on record: Rattus norvegicus; assay: Biodistribution in abdominal of mature female Dawley rat after 1h, expressed as percent injected dose/g; type: ADME, organism-based, Abdominal cavity; conditions: in vivo
[21] = species on record: Rattus norvegicus; assay: Biodistribution in lung of mature female Dawley rat after 3 h, expressed as percent injected dose/g; type: ADME, organism-based; conditions: in vivo
[22] = species on record: Rattus norvegicus; assay: Biodistribution in fat of mature female Dawley rat after 1h, expressed as percent injected dose/g; type: ADME, organism-based, Adipose tissue; conditions: in vivo
[23] = species on record: Rattus norvegicus; assay: Biodistribution in fat of mature female Dawley rat after 10min, expressed as percent injected dose/g; type: ADME, organism-based, Adipose tissue; conditions: in vivo
[24] = species on record: Rattus norvegicus; assay: Biodistribution in fat of mature female Dawley rat after 30min, expressed as percent injected dose/g; type: ADME, organism-based, Adipose tissue; conditions: in vivo, 0.5 h
[25] = species on record: Rattus norvegicus; assay: Biodistribution in heart of mature female Dawley rat after 3 h, expressed as percent injected dose/g; type: ADME, organism-based; conditions: in vivo
[26] = species on record: Rattus norvegicus; assay: Biodistribution in heart of mature female Dawley rat after 10min, expressed as percent injected dose/g; type: ADME, organism-based; conditions: in vivo
[27] = species on record: Rattus norvegicus; assay: Biodistribution in fat of mature female Dawley rat after 3 h, expressed as percent injected dose/g; type: ADME, organism-based, Adipose tissue; conditions: in vivo
[28] = species on record: Rattus norvegicus; assay: Biodistribution in brain of mature female Dawley rat after 30min, expressed as percent injected dose/g; type: ADME, organism-based; conditions: in vivo, 0.5 h
[29] = species on record: Rattus norvegicus; assay: Biodistribution in bone of mature female Dawley rat after 10min, expressed as percent injected dose/g; type: ADME, organism-based, Bone element; conditions: in vivo
[30] = species on record: Rattus norvegicus; assay: Biodistribution in lung of mature female Dawley rat after 1h, expressed as percent injected dose/g; type: ADME, organism-based; conditions: in vivo
[31] = species on record: Rattus norvegicus; assay: Biodistribution in kidney of mature female Dawley rat after 10min, expressed as percent injected dose/g; type: ADME, organism-based; conditions: in vivo
[32] = species on record: Rattus norvegicus; assay: Biodistribution in muscle of mature female Dawley rat after 1h, expressed as percent injected dose/g; type: ADME, organism-based, Muscle tissue; conditions: in vivo
[33] = species on record: Rattus norvegicus; assay: Biodistribution in blood of mature female Dawley rat after 3 h, expressed as percent injected dose/g; type: ADME, organism-based; conditions: in vivo
[34] = species on record: Rattus norvegicus; assay: Biodistribution in brain of mature female Dawley rat after 1h, expressed as percent injected dose/g; type: ADME, organism-based; conditions: in vivo
[35] = species on record: Rattus norvegicus; assay: Biodistribution in kidney of mature female Dawley rat after 1h, expressed as percent injected dose/g; type: ADME, organism-based; conditions: in vivo
[36] = species on record: Rattus norvegicus; assay: Biodistribution in blood of mature female Dawley rat after 1h, expressed as percent injected dose/g; type: ADME, organism-based; conditions: in vivo
[37] = species on record: Rattus norvegicus; assay: Biodistribution in kidney of mature female Dawley rat after 30min, expressed as percent injected dose/g; type: ADME, organism-based; conditions: in vivo, 0.5 h
[38] = species on record: Rattus norvegicus; assay: Biodistribution in blood of mature female Dawley rat after 30min, expressed as percent injected dose/g; type: ADME, organism-based; conditions: in vivo, 0.5 h
[39] = species on record: Rattus norvegicus; assay: Biodistribution inl iver of mature female Dawley rat after 3 h, expressed as percent injected dose/g; type: ADME, organism-based, Liver; conditions: in vivo
[40] = species on record: Rattus norvegicus; assay: Biodistribution in muscle of mature female Dawley rat after 10min, expressed as percent injected dose/g; type: ADME, organism-based, Muscle tissue; conditions: in vivo

Question: Which results are given for `N=C(N)SCC[18F]`?
Answer: Biodistribution [1]: 0.88%; Biodistribution [2]: 0.31%; Biodistribution [3]: 0.37%; Biodistribution [4]: 0.29%; Biodistribution [5]: 0.14%; Biodistribution [6]: 0.82%; Biodistribution [7]: 0.32%; Biodistribution [8]: 0.35%; Biodistribution [9]: 0.38%; Biodistribution [10]: 0.16%; Biodistribution [11]: 0.16%; Biodistribution [12]: 1.19%; Biodistribution [13]: 0.14%; Biodistribution [14]: 0.21%; Biodistribution [15]: 0.57%; Biodistribution [16]: 1.02%; Biodistribution [17]: 0.95%; Biodistribution [18]: 0.51%; Biodistribution [19]: 0.38%; Biodistribution [20]: 0.26%; Biodistribution [21]: 0.17%; Biodistribution [22]: 0.07%; Biodistribution [23]: 0.08%; Biodistribution [24]: 0.07%; Biodistribution [25]: 0.16%; Biodistribution [26]: 0.62%; Biodistribution [27]: 0.04%; Biodistribution [28]: 0.15%; Biodistribution [29]: 0.55%; Biodistribution [30]: 0.38%; Biodistribution [31]: 1.82%; Biodistribution [32]: 0.32%; Biodistribution [33]: 0.19%; Biodistribution [34]: 0.17%; Biodistribution [35]: 0.64%; Biodistribution [36]: 0.32%; Biodistribution [37]: 1.06%; Biodistribution [38]: 0.27%; Biodistribution [39]: 0.16%; Biodistribution [40]: 0.33%
